Experimental data reported in the NIST ThermoML archive (doi:10.1021/je100909b).
Numbers after ± are expanded uncertainties.

Experiment: mn = molality of the nth substance listed, in mol/kg
Conditions: 101 kPa, Liquid; for mass density: Vibrating tube method

CC(C)C[C@H](N)C(=O)O [L-leucine] + O
speed of sound [m/s], Sing-around technique in a fixed-path interferometer
Conditions | m1 = 0.01941 | m1 = 0.02155 | m1 = 0.0281 | m1 = 0.03296 | m1 = 0.04083 | m1 = 0.05231 | m1 = 0.06632 | m1 = 0.07033
288.15 K | – | 1468.6 ± 1.8 | 1469.5 ± 1.8 | 1470.1 ± 1.8 | 1471.1 ± 1.8 | – | 1474.4 ± 1.8 | 1475 ± 1.8
298.15 K | 1498.8 ± 1.8 | – | 1499.9 ± 1.8 | 1500.5 ± 1.8 | – | 1502.7 ± 1.8 | 1504.4 ± 1.8 | –
308.15 K | – | – | – | 1523.2 ± 1.8 | 1524.1 ± 1.8 | 1525.2 ± 1.8 | 1526.7 ± 1.8 | 1527.1 ± 1.8
318.15 K | – | – | 1539.1 ± 1.8 | 1539.5 ± 1.8 | 1540.2 ± 1.8 | 1541.3 ± 1.8 | 1542.6 ± 1.8 | 1543 ± 1.8

Conditions | viscosity [mPa·s]
288.15 K, m1 = 0.01977 | 1.151 ± 0.021
288.15 K, m1 = 0.02401 | 1.153 ± 0.021
288.15 K, m1 = 0.03189 | 1.158 ± 0.021
288.15 K, m1 = 0.04067 | 1.163 ± 0.021
288.15 K, m1 = 0.04511 | 1.166 ± 0.021
288.15 K, m1 = 0.0503 | 1.169 ± 0.021
298.15 K, m1 = 0.02228 | 0.9009 ± 0.017
298.15 K, m1 = 0.03694 | 0.9076 ± 0.017
298.15 K, m1 = 0.04045 | 0.9094 ± 0.017
298.15 K, m1 = 0.05353 | 0.9156 ± 0.017
298.15 K, m1 = 0.06724 | 0.9222 ± 0.017
298.15 K, m1 = 0.08113 | 0.928 ± 0.017
308.15 K, m1 = 0.0193 | 0.7262 ± 0.014
308.15 K, m1 = 0.02231 | 0.7271 ± 0.014
308.15 K, m1 = 0.03116 | 0.7301 ± 0.014
308.15 K, m1 = 0.03988 | 0.7332 ± 0.014
308.15 K, m1 = 0.04441 | 0.7347 ± 0.014
308.15 K, m1 = 0.05005 | 0.7366 ± 0.014
318.15 K, m1 = 0.01898 | 0.6012 ± 0.012
318.15 K, m1 = 0.02214 | 0.602 ± 0.012
318.15 K, m1 = 0.03098 | 0.6043 ± 0.012
318.15 K, m1 = 0.03968 | 0.6064 ± 0.012
318.15 K, m1 = 0.04439 | 0.6076 ± 0.012
318.15 K, m1 = 0.04995 | 0.6092 ± 0.012

CC(C)[C@H](N)C(=O)O [L-valine] + O
speed of sound [m/s], Sing-around technique in a fixed-path interferometer
Conditions | m1 = 0.0197 | m1 = 0.03559 | m1 = 0.04365 | m1 = 0.05244 | m1 = 0.0586 | m1 = 0.07142 | m1 = 0.08303
288.15 K | – | 1469.6 ± 1.6 | 1470.5 ± 1.6 | 1471.4 ± 1.6 | 1472 ± 1.6 | 1473.4 ± 1.6 | 1474.6 ± 1.6
298.15 K | – | 1500.1 ± 1.6 | 1500.9 ± 1.6 | 1501.7 ± 1.6 | 1502.3 ± 1.6 | 1503.6 ± 1.6 | 1504.7 ± 1.6
308.15 K | – | 1523 ± 1.6 | 1523.8 ± 1.6 | 1524.6 ± 1.6 | 1525.1 ± 1.6 | 1526.3 ± 1.6 | 1527.3 ± 1.6
318.15 K | 1538.1 ± 1.6 | – | 1540 ± 1.6 | 1540.7 ± 1.6 | 1541.2 ± 1.6 | 1542.3 ± 1.6 | 1543.2 ± 1.6

Conditions | viscosity [mPa·s]
288.15 K, m1 = 0.02209 | 1.15 ± 0.021
288.15 K, m1 = 0.03342 | 1.157 ± 0.021
288.15 K, m1 = 0.04176 | 1.161 ± 0.021
288.15 K, m1 = 0.04553 | 1.163 ± 0.021
288.15 K, m1 = 0.0505 | 1.166 ± 0.021
288.15 K, m1 = 0.05576 | 1.169 ± 0.021
298.15 K, m1 = 0.02235 | 0.8987 ± 0.017
298.15 K, m1 = 0.03324 | 0.9027 ± 0.017
298.15 K, m1 = 0.04271 | 0.9064 ± 0.017
298.15 K, m1 = 0.04775 | 0.9082 ± 0.017
298.15 K, m1 = 0.05319 | 0.9101 ± 0.017
298.15 K, m1 = 0.05741 | 0.9118 ± 0.017
308.15 K, m1 = 0.02114 | 0.7258 ± 0.014
308.15 K, m1 = 0.03147 | 0.7288 ± 0.014
308.15 K, m1 = 0.04157 | 0.7319 ± 0.014
308.15 K, m1 = 0.04549 | 0.7331 ± 0.014
308.15 K, m1 = 0.04791 | 0.7337 ± 0.014
308.15 K, m1 = 0.05464 | 0.7358 ± 0.014
318.15 K, m1 = 0.02149 | 0.6014 ± 0.012
318.15 K, m1 = 0.03166 | 0.6038 ± 0.012
318.15 K, m1 = 0.04179 | 0.6061 ± 0.012
318.15 K, m1 = 0.04524 | 0.6068 ± 0.012
318.15 K, m1 = 0.0474 | 0.6073 ± 0.012
318.15 K, m1 = 0.05407 | 0.609 ± 0.012

[Cl][Cd][Cl] [cadmium chloride] + O
Conditions | mass density [kg/m3] | speed of sound [m/s] | viscosity [mPa·s]
288.15 K, m1 = 0.1 | 1015.69 ± 0.16 | 1479 ± 1.7 | 1.144 ± 0.056
288.15 K, m1 = 0.5 | 1077.05 ± 0.18 | 1484 ± 1.7 | 1.223 ± 0.059
288.15 K, m1 = 1 | 1149.37 ± 0.21 | 1492.8 ± 1.7 | 1.334 ± 0.064
288.15 K, m1 = 1.5 | 1205.71 ± 0.27 | 1496.2 ± 1.8 | 1.472 ± 0.07
298.15 K, m1 = 0.1 | 1012.89 ± 0.16 | 1501.6 ± 1.7 | 0.926 ± 0.046
298.15 K, m1 = 0.5 | 1072.65 ± 0.17 | 1507.2 ± 1.7 | 1.036 ± 0.051
298.15 K, m1 = 1 | 1140.72 ± 0.21 | 1511.4 ± 1.7 | 1.16 ± 0.056
298.15 K, m1 = 1.5 | 1199.85 ± 0.27 | 1514.4 ± 1.8 | 1.226 ± 0.059
308.15 K, m1 = 0.1 | 1009.59 ± 0.16 | 1522.4 ± 1.7 | 0.7258 ± 0.038
308.15 K, m1 = 0.5 | 1068.5 ± 0.17 | 1525.2 ± 1.7 | 0.8259 ± 0.042
308.15 K, m1 = 1 | 1135.37 ± 0.2 | 1527.4 ± 1.7 | 0.9138 ± 0.046
308.15 K, m1 = 1.5 | 1193.02 ± 0.26 | 1530.2 ± 1.8 | 0.9824 ± 0.049
318.15 K, m1 = 0.1 | 1005.51 ± 0.15 | 1538.6 ± 1.7 | 0.6097 ± 0.033
318.15 K, m1 = 0.5 | 1063.8 ± 0.17 | 1541.8 ± 1.7 | 0.6739 ± 0.035
318.15 K, m1 = 1 | 1129.17 ± 0.2 | 1543.2 ± 1.7 | 0.7467 ± 0.038
318.15 K, m1 = 1.5 | 1186 ± 0.26 | 1546.2 ± 1.8 | 0.8197 ± 0.042

O [water] + [Cl][Cd][Cl]
m2 = 0
Conditions | viscosity [mPa·s]
288.15 K | 1.138 ± 0.055
298.15 K | 0.8903 ± 0.045
308.15 K | 0.7195 ± 0.037
318.15 K | 0.5963 ± 0.032
